Assays:
persian speedwell [1] = experiment: Test Example 5: herbicidal effect by foliage application, plastic box (Table 20, symbol R); format: in vivo, Persian speedwell (Veronica persica); settings: foliage application, 320 g/ha, three weeks after application
In short: (§1)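 Sow seeds spot-wise in sterilized diluvial soil; cover with ~1.5 cm soil. Grow 14 days in greenhouse, 25° C. to 30° C. Spray foliage with emulsion diluted to predetermined amount. Rate effect after 3 weeks.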

lambsquarters [2] = experiment: Test Example 4: herbicidal effect by soil treatment (Table 19, symbol O); format: in vivo, lambsquarters (Chenopodium album); settings: amount of applied herbicide 320 g/ha
In short: (§2)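 Applied as a water-diluted emulsion, the compound was sprayed onto soil covering newly sown seeds. Evaluation came three weeks after application, in a greenhouse held at 25° C. to 30° C.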

chickweed [3] = experiment: Test Example 5: herbicidal effect by foliage application, plastic box (Table 20, symbol P); format: in vivo, common chickweed (Stellaria media); settings: foliage application, 320 g/ha, three weeks after application
In short: as §1

Japanese bulrush = experiment: Test Example 1: herbicidal activity, application before weed generation under submerged conditions (Table 16, symbol B); format: in vivo, Japanese bulrush (Schoenoplectus juncoides); settings: amount of applied herbicide 320 g/ha
Description: (§3) [Test Example 1] Herbicidal Activity Test by Application before Weed Generation under Submerged Conditions After alluvial soil was placed into 1/10000 are of Wagner pot, water was poured and mixed to form a submerged condition having a water depth of 4 cm. Seeds of late watergrass, Japanese bulrush, and oval-leafed pondweed were sowed in a mixed manner in the aforementioned pot, and then 2.5 leaf stage rice plant seedlings were transplanted thereto. On the day of sowing seeds, the emulsion agent of the compound of the present invention prepared according to Formulation Example 2 was diluted with water so as to achieve a predetermined herbicide amount, and the diluted emulsion agent was applied to the surface of the water. The pot was placed in a greenhouse at 25° C. to 30° C. for growth of the plants. Three weeks after the herbicide application, the effect of the herbicide on each plant was evaluated according to the following criteria. Evaluation Criteria 5: Herbicidal rate of 90% or more (almost completely withered) 4: Herbicidal rate of 70% or more and less than 90% 3: Herbicidal rate of 40% or more and less than 70% 2: Herbicidal rate of 20% or more and less than 40% 1: Herbicidal rate of 5% or more and less than 20% 0: Herbicidal rate of 5% or less (almost no effect)

Chinese sprangletop = experiment: Test Example 3: herbicidal effect by foliage application, Wagner pot (Table 18, symbol D); format: in vivo, chinese sprangletop (Leptochloa chinensis)
In short: (§4)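 Plants were sown in alluvial soil held under 0.1–0.5 cm standing water and grown 14 days in a greenhouse at 25–30 °C. An emulsifiable formulation, water-diluted to the set dose, was then sprayed onto the foliage, and effects were scored three weeks later using previously defined criteria.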

Italian ryegrass [4] = experiment: Test Example 4: herbicidal effect by soil treatment (Table 19, symbol K); format: in vivo, Italian ryegrass (Lolium multiflorum); settings: amount of applied herbicide 320 g/ha
In short: as §2

green foxtail [5] = experiment: Test Example 4: herbicidal effect by soil treatment (Table 19, symbol G); format: in vivo, green foxtail (Setaria viridis); settings: amount of applied herbicide 320 g/ha
In short: as §2

redroot pigweed [6] = experiment: Test Example 4: herbicidal effect by soil treatment (Table 19, symbol N); format: in vivo, redroot pigweed (Amaranthus retroflexus); settings: amount of applied herbicide 320 g/ha
In short: as §2

chickweed [7] = experiment: Test Example 4: herbicidal effect by soil treatment (Table 19, symbol P); format: in vivo, common chickweed (Stellaria media); settings: amount of applied herbicide 320 g/ha
In short: as §2

velvetleaf [8] = experiment: Test Example 4: herbicidal effect by soil treatment (Table 19, symbol M); format: in vivo, velvetleaf (Abutilon theophrasti); settings: amount of applied herbicide 320 g/ha
In short: as §2

southern crabgrass [9] = experiment: Test Example 4: herbicidal effect by soil treatment (Table 19, symbol F); format: in vivo, southern crabgrass (Digitaria ciliaris); settings: amount of applied herbicide 320 g/ha
In short: as §2

rice flat sedge = experiment: Test Example 3: herbicidal effect by foliage application, Wagner pot (Table 18, symbol E); format: in vivo, rice flat sedge (Cyperus iria)
In short: as §4

wild oat [10] = experiment: Test Example 5: herbicidal effect by foliage application, plastic box (Table 20, symbol I); format: in vivo, wild oat (Avena fatua); settings: foliage application, 320 g/ha, three weeks after application
In short: as §1

southern crabgrass [11] = experiment: Test Example 5: herbicidal effect by foliage application, plastic box (Table 20, symbol F); format: in vivo, southern crabgrass (Digitaria ciliaris); settings: foliage application, 320 g/ha, three weeks after application
In short: as §1

blackgrass [12] = experiment: Test Example 4: herbicidal effect by soil treatment (Table 19, symbol J); format: in vivo, blackgrass (Alopecurus myosuroides); settings: amount of applied herbicide 320 g/ha
In short: as §2

velvetleaf [13] = experiment: Test Example 5: herbicidal effect by foliage application, plastic box (Table 20, symbol M); format: in vivo, velvetleaf (Abutilon theophrasti); settings: foliage application, 320 g/ha, three weeks after application
In short: as §1

persian speedwell [14] = experiment: Test Example 4: herbicidal effect by soil treatment (Table 19, symbol R); format: in vivo, Persian speedwell (Veronica persica); settings: amount of applied herbicide 320 g/ha
In short: as §2

windgrass [15] = experiment: Test Example 4: herbicidal effect by soil treatment (Table 19, symbol L); format: in vivo, windgrass (Apera spica-venti); settings: amount of applied herbicide 320 g/ha
In short: as §2

late watergrass = experiment: Test Example 1: herbicidal activity, application before weed generation under submerged conditions (Table 16, symbol A); format: in vivo, late watergrass (Echinochloa oryzicola); settings: amount of applied herbicide 320 g/ha
Description: as §3

green foxtail [16] = experiment: Test Example 5: herbicidal effect by foliage application, plastic box (Table 20, symbol G); format: in vivo, green foxtail (Setaria viridis); settings: foliage application, 320 g/ha, three weeks after application
In short: as §1

blackgrass [17] = experiment: Test Example 5: herbicidal effect by foliage application, plastic box (Table 20, symbol J); format: in vivo, blackgrass (Alopecurus myosuroides); settings: foliage application, 320 g/ha, three weeks after application
In short: as §1

windgrass [18] = experiment: Test Example 5: herbicidal effect by foliage application, plastic box (Table 20, symbol L); format: in vivo, windgrass (Apera spica-venti); settings: foliage application, 320 g/ha, three weeks after application
In short: as §1

lambsquarters [19] = experiment: Test Example 5: herbicidal effect by foliage application, plastic box (Table 20, symbol O); format: in vivo, lambsquarters (Chenopodium album); settings: foliage application, 320 g/ha, three weeks after application
In short: as §1

barnyard grass [20] = experiment: Test Example 5: herbicidal effect by foliage application, plastic box (Table 20, symbol H); format: in vivo, barnyard grass (Echinochloa crus-galli); settings: foliage application, 320 g/ha, three weeks after application
In short: as §1

barnyard grass [21] = experiment: Test Example 3: herbicidal effect by foliage application, Wagner pot (Table 18, symbol H); format: in vivo, barnyard grass (Echinochloa crus-galli)
In short: as §4

barnyard grass [22] = experiment: Test Example 4: herbicidal effect by soil treatment (Table 19, symbol H); format: in vivo, barnyard grass (Echinochloa crus-galli); settings: amount of applied herbicide 320 g/ha
In short: as §2

redroot pigweed [23] = experiment: Test Example 5: herbicidal effect by foliage application, plastic box (Table 20, symbol N); format: in vivo, redroot pigweed (Amaranthus retroflexus); settings: foliage application, 320 g/ha, three weeks after application
In short: as §1

Italian ryegrass [24] = experiment: Test Example 5: herbicidal effect by foliage application, plastic box (Table 20, symbol K); format: in vivo, Italian ryegrass (Lolium multiflorum); settings: foliage application, 320 g/ha, three weeks after application
In short: as §1

wild oat [25] = experiment: Test Example 4: herbicidal effect by soil treatment (Table 19, symbol I); format: in vivo, wild oat (Avena fatua); settings: amount of applied herbicide 320 g/ha
In short: as §2

oval-leafed pondweed = experiment: Test Example 1: herbicidal activity, application before weed generation under submerged conditions (Table 16, symbol C); format: in vivo, oval-leafed pondweed (Monochoria vaginalis); settings: amount of applied herbicide 320 g/ha
Description: as §3

[26] = amount of applied herbicide 320 g/ha

SMILES: COc1ccccc1-c1sc2cc(OS(=O)(=O)N(C)C)ccc2c1-c1c(O)c(C)nn(C)c1=O [3-134]
- R: persian speedwell, herbicidal effect grade (persian speedwell [1]): 5 (Herbicidal rate of 90% or more (almost completely withered))
- Herbicidal effect by soil treatment, O: lambsquarters (lambsquarters [2]): 3 (Herbicidal rate of 40% or more and less than 70%)
- P: chickweed, herbicidal effect grade (chickweed [3]): 5 (Herbicidal rate of 90% or more (almost completely withered))
- Herbicidal effect, B: Japanese bulrush (Japanese bulrush): 4 (Herbicidal rate of 70% or more and less than 90%)
- herbicidal effect on Chinese sprangletop (D) (Chinese sprangletop; 320 g/ha): 4 (Herbicidal rate of 70% or more and less than 90%)
- Herbicidal effect by soil treatment, K: Italian ryegrass (Italian ryegrass [4]): 4 (Herbicidal rate of 70% or more and less than 90%)
- Herbicidal effect by soil treatment, G: green foxtail (green foxtail [5]): 0 (Herbicidal rate of 5% or less (almost no effect))
- Herbicidal effect by soil treatment, N: redroot pigweed (redroot pigweed [6]): 5 (Herbicidal rate of 90% or more (almost completely withered))
- Herbicidal effect by soil treatment, P: chickweed (chickweed [7]): 1 (Herbicidal rate of 5% or more and less than 20%)
- Herbicidal effect by soil treatment, M: velvetleaf (velvetleaf [8]): 1 (Herbicidal rate of 5% or more and less than 20%)
- Herbicidal effect by soil treatment, F: southern crabgrass (southern crabgrass [9]): 0 (Herbicidal rate of 5% or less (almost no effect))
- herbicidal effect on rice flat sedge (E) (rice flat sedge; 320 g/ha): 3 (Herbicidal rate of 40% or more and less than 70%)
- I: wild oat, herbicidal effect grade (wild oat [10]): 2 (Herbicidal rate of 20% or more and less than 40%)
- F: southern crabgrass, herbicidal effect grade (southern crabgrass [11]): 4 (Herbicidal rate of 70% or more and less than 90%)
- Herbicidal effect by soil treatment, J: blackgrass (blackgrass [12]): 4 (Herbicidal rate of 70% or more and less than 90%)
- M: velvetleaf, herbicidal effect grade (velvetleaf [13]): 3 (Herbicidal rate of 40% or more and less than 70%)
- Herbicidal effect by soil treatment, R: persian speedwell (persian speedwell [14]): 3 (Herbicidal rate of 40% or more and less than 70%)
- Herbicidal effect by soil treatment, L: windgrass (windgrass [15]): 5 (Herbicidal rate of 90% or more (almost completely withered))
- Herbicidal effect, A: late watergrass (late watergrass): 3 (Herbicidal rate of 40% or more and less than 70%)
- G: green foxtail, herbicidal effect grade (green foxtail [16]): 3 (Herbicidal rate of 40% or more and less than 70%)
- J: blackgrass, herbicidal effect grade (blackgrass [17]): 4 (Herbicidal rate of 70% or more and less than 90%)
- L: windgrass, herbicidal effect grade (windgrass [18]): 5 (Herbicidal rate of 90% or more (almost completely withered))
- O: lambsquarters, herbicidal effect grade (lambsquarters [19]): 3 (Herbicidal rate of 40% or more and less than 70%)
- H: barnyard grass, herbicidal effect grade (barnyard grass [20]): 0 (Herbicidal rate of 5% or less (almost no effect))
- herbicidal effect on barnyard grass (H) (barnyard grass [21]; 320 g/ha): 3 (Herbicidal rate of 40% or more and less than 70%)
- Herbicidal effect by soil treatment, H: barnyard grass (barnyard grass [22]): 0 (Herbicidal rate of 5% or less (almost no effect))
- N: redroot pigweed, herbicidal effect grade (redroot pigweed [23]): 4 (Herbicidal rate of 70% or more and less than 90%)
- K: Italian ryegrass, herbicidal effect grade (Italian ryegrass [24]): 4 (Herbicidal rate of 70% or more and less than 90%)
- Herbicidal effect by soil treatment, I: wild oat (wild oat [25]): 0 (Herbicidal rate of 5% or less (almost no effect))

SMILES: Cc1cc2sc(-c3ccc(OC(F)F)cc3)c(-c3c(O)c(C)nn(C)c3=O)c2cc1C [5-098]
- herbicidal effect on persian speedwell (R) (persian speedwell [1]): 5 (Herbicidal rate of 90% or more (almost completely withered))
- Herbicidal effect, B: Japanese bulrush (Japanese bulrush): 0 (Herbicidal rate of 5% or less (almost no effect))
- Herbicidal effect, C: oval-leafed pondweed (oval-leafed pondweed): 0 (Herbicidal rate of 5% or less (almost no effect))
- herbicidal effect on wild oat (I) (wild oat [10]): 0 (Herbicidal rate of 5% or less (almost no effect))
- herbicidal effect on southern crabgrass (F) (southern crabgrass [11]): 0 (Herbicidal rate of 5% or less (almost no effect))
- herbicidal effect on velvetleaf (M) (velvetleaf [13]): 0 (Herbicidal rate of 5% or less (almost no effect))
- Herbicidal effect, A: late watergrass (late watergrass): 3 (Herbicidal rate of 40% or more and less than 70%)
- herbicidal effect on green foxtail (G) (green foxtail [16]): 0 (Herbicidal rate of 5% or less (almost no effect))
- herbicidal effect on blackgrass (J) (blackgrass [17]): 0 (Herbicidal rate of 5% or less (almost no effect))
- herbicidal effect on windgrass (L) (windgrass [18]): 0 (Herbicidal rate of 5% or less (almost no effect))
- herbicidal effect on lambsquarters (O) (lambsquarters [19]): 0 (Herbicidal rate of 5% or less (almost no effect))
- herbicidal effect on barnyard grass (H) (barnyard grass [20]): 0 (Herbicidal rate of 5% or less (almost no effect))
- herbicidal effect on Italian ryegrass (K) (Italian ryegrass [24]): 0 (Herbicidal rate of 5% or less (almost no effect))

SMILES: Cc1nn(C)c(=O)c(-c2c(-c3ccc(OC(F)(F)F)cc3)oc3ccc(F)cc23)c1O [9-033]
- Herbicidal effect, B: Japanese bulrush (Japanese bulrush): 0 (Herbicidal rate of 5% or less (almost no effect))
- Herbicidal effect on D (Chinese sprangletop), foliage application (Chinese sprangletop; [26]): 3 (Herbicidal rate of 40% or more and less than 70%)
- Herbicidal effect on E (rice flat sedge), foliage application (rice flat sedge; [26]): 5 (Herbicidal rate of 90% or more (almost completely withered))
- Herbicidal effect, C: oval-leafed pondweed (oval-leafed pondweed): 0 (Herbicidal rate of 5% or less (almost no effect))
- Herbicidal effect, A: late watergrass (late watergrass): 2 (Herbicidal rate of 20% or more and less than 40%)
- Herbicidal effect on H (barnyard grass), foliage application (barnyard grass [21]; [26]): 4 (Herbicidal rate of 70% or more and less than 90%)
